From patent US8853217B2, “Compounds useful as inhibitors of ATR kinase” (Vertex Pharmaceuticals Incorporated, priority 2011, dated 2014)

Key:
[1] = target: T1, intracellular ATR (Homo sapiens, UniProt Q13535); experiment: Cellular ATR Inhibition Assay (phosphorylated H2AX immunofluorescence in hydroxyurea treated HT29 cells); type: cell-based; details: 2 mM hydroxyurea, phosphorylated H2AX Ser139
T1 construct: endogenous in cells; host or cells: HT29
Experimental: Compounds can be screened for their ability to inhibit intracellular ATR using an immunofluorescence microscopy assay to detect phosphorylation of the ATR substrate histone H2AX in hydroxyurea treated cells. HT29 cells are plated at 14,000 cells per well in 96-well black imaging plates (BD 353219) in McCoy's 5A media (Sigma M8403) supplemented with 10% foetal bovine serum (JRH Biosciences 12003), Penicillin/Streptomycin solution diluted 1:100 (Sigma P7539), and 2 mM L-glumtamine (Sigma G7513), and allowed to adhere overnight at 37° C. in 5% CO2. Compounds are then added to the cell media from a final concentration of 25 μM in 3-fold serial dilutions and the cells are incubated at 37° C. in 5% CO2. […]
Cells are imaged for Alexa Fluor 488 and Hoechst intensity using the BD Pathway 855 Bioimager and Attovision software (BD Biosciences, Version 1.6/855) to quantify phosphorylated H2AX Ser139 and DNA staining, respectively. The percentage of phosphorylated H2AX-positive nuclei in a montage of 9 images at 20× magnification is then calculated for each well using BD Image Data Explorer software (BD Biosciences Version 2.2.15). […] The percentage of H2AX positive nuclei is finally plotted against concentration for each compound and IC50s for intracellular ATR inhibition are determined using Prism software (GraphPad Prism version 3.0cx for Macintosh, GraphPad Software, San Diego Calif., USA).

[2] = Pharmacokinetics following intravenous dosing; details: in vivo
Experimental: Noncompartmental pharmacokinetic parameters were analyzed using Watson Bioanalytical LIMS (Version 7.4; Thermo Fisher Scientific) from either the blood or plasma samples. The following parameters were estimated following intravenous (IV) dosing; terminal elimination half-life (T1/2=ln(2)/λz, where λz is the first order rate constant associated with the terminal (log-linear) portion of the curve.
The area under the curve (AUClast=area under the curve from the time of dosing to the last measurable concentration). The area under the curve extrapolated to infinity (AUC0-∞=AUClast+Clast/λz). The clearance (Cl; Cl=DoseIV/AUC0-∞). The area under the first moment curve (AUMClast=area under the concentration times time versus time curve from the time of dosing to the last measurable concentration). The area under the first moment curve extrapolated to infinity (AUMC0-∞=AUMClast+Clast×t/λz+Clast/λz^2). The mean residence time (MRT=AUMC0-∞/AUC0-∞) and the steady state volume of distribution (Vdss=MRT×Cl) (see Table 2 below for data).
Clearance and volume of distribution can also be obtained using methods known to one of skill in the art (see e.g., Handbook of Essential Pharmacokinetics, Pharmacodynamics and Drug Metabolism for Industrial Scientists, Younggil Kwon, pp 18-28 (Non-compartmental Approach)).

[3] = system: HCT116 colorectal cancer cells; experiment: Single Agent HCT116 Activity, 96 h cell viability (MTS) assay; type: cell-based; details: Homo sapiens, HCT-116, read-out: Single agent HT116 IC50
Experimental: Compounds can be screened for single agent activity against HCT116 colorectal cancer cells using a 96 h cell viability (MTS) assay. HCT116 are plated at 470 cells per well in 96-well polystyrene plates (Costar 3596) in 150 μl of McCoy's 5A media (Sigma M8403) supplemented with 10% foetal bovine serum (JRH Biosciences 12003), Penicillin/Streptomycin solution diluted 1:100 (Sigma P7539), and 2 mM L-glumtamine (Sigma G7513), and allowed to adhere overnight at 37° C. in 5% CO2. Compounds are then added to the cell media in 2-fold serial dilutions from a top final concentration of 10 μM as a full matrix of concentrations in a final cell volume of 200 μl, and the cells are then incubated at 37° C. in 5% CO2. After 96 h, 40 μl of MTS reagent (Promega G358a) is added to each well and the cells are incubated for 1 h at 37° C. in 5% CO2. Finally, absorbance is measured at 490 nm using a SpectraMax Plus 384 reader (Molecular Devices) and IC50 values can be calculated (see Table 2 below for data).

[4] = target: T2, full-length ATR (Homo sapiens, UniProt Q13535); experiment: ATR Inhibition Assay (radioactive-phosphate incorporation); type: biochemical; details: Ki(app); 10 μM ATP, 5 nM full-length ATR, 25° C.
T2 construct: Assays were carried out at 25° C. in the presence of 5 nM full-length ATR
T2 sequence (Q13535 whole entry): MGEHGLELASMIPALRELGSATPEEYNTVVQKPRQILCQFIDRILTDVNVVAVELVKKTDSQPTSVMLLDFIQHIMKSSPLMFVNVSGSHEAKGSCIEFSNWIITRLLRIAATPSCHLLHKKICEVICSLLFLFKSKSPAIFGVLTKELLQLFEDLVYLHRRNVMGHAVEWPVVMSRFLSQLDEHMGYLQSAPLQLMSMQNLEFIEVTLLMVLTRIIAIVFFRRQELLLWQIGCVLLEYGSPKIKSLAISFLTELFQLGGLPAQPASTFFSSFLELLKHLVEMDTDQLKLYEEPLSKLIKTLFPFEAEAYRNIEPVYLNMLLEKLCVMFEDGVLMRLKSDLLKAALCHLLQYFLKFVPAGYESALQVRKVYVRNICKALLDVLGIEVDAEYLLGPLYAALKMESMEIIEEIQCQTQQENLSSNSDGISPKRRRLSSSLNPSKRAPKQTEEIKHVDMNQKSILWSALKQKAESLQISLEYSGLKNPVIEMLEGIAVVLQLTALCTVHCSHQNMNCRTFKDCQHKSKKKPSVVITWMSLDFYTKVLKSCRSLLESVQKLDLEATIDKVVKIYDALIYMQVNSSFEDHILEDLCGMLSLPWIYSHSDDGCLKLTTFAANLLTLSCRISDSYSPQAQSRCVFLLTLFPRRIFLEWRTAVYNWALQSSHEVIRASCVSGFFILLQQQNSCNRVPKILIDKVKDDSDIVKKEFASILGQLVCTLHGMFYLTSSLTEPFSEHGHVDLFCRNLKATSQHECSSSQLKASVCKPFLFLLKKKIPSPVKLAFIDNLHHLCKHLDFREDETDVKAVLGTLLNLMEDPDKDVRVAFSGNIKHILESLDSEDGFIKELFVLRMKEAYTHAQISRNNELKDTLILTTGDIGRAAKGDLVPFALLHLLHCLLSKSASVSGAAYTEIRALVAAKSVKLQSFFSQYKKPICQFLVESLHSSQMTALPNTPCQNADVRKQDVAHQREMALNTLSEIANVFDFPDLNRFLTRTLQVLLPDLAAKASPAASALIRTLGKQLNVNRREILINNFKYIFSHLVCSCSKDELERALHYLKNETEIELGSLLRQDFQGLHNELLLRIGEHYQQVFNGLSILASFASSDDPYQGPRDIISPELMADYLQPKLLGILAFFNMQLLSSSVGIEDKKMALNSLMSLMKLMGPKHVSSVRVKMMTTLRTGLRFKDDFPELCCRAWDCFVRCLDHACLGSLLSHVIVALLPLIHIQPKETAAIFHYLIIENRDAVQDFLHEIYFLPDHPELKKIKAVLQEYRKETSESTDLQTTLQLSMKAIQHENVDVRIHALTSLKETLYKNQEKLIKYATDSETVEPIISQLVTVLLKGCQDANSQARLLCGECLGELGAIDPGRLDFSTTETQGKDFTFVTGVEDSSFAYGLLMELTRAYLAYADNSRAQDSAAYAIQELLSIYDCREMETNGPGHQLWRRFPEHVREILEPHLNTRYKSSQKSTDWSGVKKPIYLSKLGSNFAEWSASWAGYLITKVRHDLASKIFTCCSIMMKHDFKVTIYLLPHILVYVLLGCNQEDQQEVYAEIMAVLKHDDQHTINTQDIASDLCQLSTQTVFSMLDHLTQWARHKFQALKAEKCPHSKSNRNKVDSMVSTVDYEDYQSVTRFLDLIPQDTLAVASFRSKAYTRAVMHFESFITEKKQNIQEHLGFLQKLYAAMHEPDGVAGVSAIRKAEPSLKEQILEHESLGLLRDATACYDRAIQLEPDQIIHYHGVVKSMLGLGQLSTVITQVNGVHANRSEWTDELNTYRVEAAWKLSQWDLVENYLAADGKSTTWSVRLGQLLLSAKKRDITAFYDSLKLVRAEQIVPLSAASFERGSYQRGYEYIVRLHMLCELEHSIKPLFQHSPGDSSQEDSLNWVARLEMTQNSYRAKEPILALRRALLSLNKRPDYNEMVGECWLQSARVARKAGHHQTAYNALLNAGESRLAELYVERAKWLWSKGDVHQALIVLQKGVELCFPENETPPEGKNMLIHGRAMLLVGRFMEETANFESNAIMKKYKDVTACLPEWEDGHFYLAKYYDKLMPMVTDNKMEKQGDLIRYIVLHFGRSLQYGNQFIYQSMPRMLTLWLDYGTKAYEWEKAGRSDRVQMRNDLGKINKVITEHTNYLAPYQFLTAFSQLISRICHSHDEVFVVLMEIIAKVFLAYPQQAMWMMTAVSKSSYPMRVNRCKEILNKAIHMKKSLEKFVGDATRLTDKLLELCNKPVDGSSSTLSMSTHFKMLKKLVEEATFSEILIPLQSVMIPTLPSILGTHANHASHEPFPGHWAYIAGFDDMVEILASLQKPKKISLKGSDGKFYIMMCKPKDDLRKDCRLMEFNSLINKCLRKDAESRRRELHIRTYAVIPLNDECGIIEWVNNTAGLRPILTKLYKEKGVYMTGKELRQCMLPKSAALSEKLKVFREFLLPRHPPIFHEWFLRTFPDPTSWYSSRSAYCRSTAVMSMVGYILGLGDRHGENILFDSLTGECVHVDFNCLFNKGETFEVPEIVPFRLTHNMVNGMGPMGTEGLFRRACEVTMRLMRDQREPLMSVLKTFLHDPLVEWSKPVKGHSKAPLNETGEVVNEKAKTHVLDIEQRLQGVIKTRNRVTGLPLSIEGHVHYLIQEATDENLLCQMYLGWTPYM
Experimental: Compounds were screened for their ability to inhibit ATR kinase using a radioactive-phosphate incorporation assay. Assays were carried out in a mixture of 50 mM Tris/HCl (pH 7.5), 10 mM MgCl2 and 1 mM DTT. Final substrate concentrations were 10 μM [γ-33P]ATP (3 mCi 33P ATP/mmol ATP, Perkin Elmer) and 800 μM target peptide (ASELPASQPQPFSAKKK (SEQ ID NO: 1)).
Assays were carried out at 25° C. in the presence of 5 nM full-length ATR. An assay stock buffer solution was prepared containing all of the reagents listed above, with the exception of ATP and the test compound of interest. 13.5 μL of the stock solution was placed in a 96 well plate followed by addition of 2 μL of DMSO stock containing serial dilutions of the test compound (typically starting from a final concentration of 15 μM with 3-fold serial dilutions) in duplicate (final DMSO concentration 7%). The plate was pre-incubated for 10 minutes at 25° C. and the reaction initiated by addition of 15 μL [γ-33P]ATP (final concentration 10 μM).
The reaction was stopped after […] by the addition of 30 μL 0.1M phosphoric acid containing 2 mM ATP. […]
After removing mean background values for all of the data points, Ki(app) data were calculated from non-linear regression analysis of the initial rate data using the Prism software package (GraphPad Prism version 3.0cx for Macintosh, GraphPad Software, San Diego Calif., USA). […]

[5] = system: HCT116 colorectal cancer cells; experiment: Cisplatin Sensitization Assay, 96 h cell viability (MTS); type: cell-based; details: concentration of compound required to reduce the IC50 of Cisplatin alone by at least 3-fold; HCT116, 96 h
Experimental: Compounds can be screened for their ability to sensitize HCT116 colorectal cancer cells to Cisplatin using a 96 h cell viability (MTS) assay. […] Compounds and Cisplatin are then both added simultaneously to the cell media in 2-fold serial dilutions from a top final concentration of 10 μM as a full matrix of concentrations in a final cell volume of 200 μl, and the cells are then incubated at 37° C. in 5% CO2. After 96 h, 40 μl of MTS reagent (Promega G358a) is added to each well and the cells are incubated for 1 h at 37° C. in 5% CO2. Finally, absorbance is measured at 490 nm using a SpectraMax Plus 384 reader (Molecular Devices) and the concentration of compound required to reduce the IC50 of Cisplatin alone by at least 3-fold (to 1 decimal place) can be reported.

T1 sequence (Q13535 whole entry): as above
T1 sequence (Q8WXE1 whole entry partner): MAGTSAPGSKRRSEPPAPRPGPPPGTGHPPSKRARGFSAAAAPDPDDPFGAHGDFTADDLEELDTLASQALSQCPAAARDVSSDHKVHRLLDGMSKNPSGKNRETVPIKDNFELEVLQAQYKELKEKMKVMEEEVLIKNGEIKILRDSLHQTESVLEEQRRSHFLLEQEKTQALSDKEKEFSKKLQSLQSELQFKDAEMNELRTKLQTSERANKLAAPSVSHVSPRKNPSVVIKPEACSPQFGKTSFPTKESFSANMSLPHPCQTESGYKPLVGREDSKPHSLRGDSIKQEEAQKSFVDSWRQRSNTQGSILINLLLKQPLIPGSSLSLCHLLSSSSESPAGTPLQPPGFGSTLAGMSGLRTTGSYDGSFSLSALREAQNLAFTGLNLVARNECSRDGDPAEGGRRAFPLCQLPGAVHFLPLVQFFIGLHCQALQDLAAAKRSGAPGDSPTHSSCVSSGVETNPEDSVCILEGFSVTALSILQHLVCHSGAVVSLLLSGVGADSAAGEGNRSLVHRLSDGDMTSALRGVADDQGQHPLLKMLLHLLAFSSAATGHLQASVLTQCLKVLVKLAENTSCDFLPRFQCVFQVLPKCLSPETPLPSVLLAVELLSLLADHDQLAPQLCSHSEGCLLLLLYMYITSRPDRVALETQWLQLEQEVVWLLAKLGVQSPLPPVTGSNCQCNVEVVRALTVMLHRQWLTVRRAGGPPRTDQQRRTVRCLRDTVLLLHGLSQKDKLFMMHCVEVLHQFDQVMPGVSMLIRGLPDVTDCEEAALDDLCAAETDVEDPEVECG

IC50 [1]: 16 nM
clearance ([2]; blood or plasma samples): 6 mL/min/kg
Vd ([2]; steady state volume of distribution, read-out: Vss): 0.9 L/kg
IC50 [3]: 62 nM
Ki [4]: 0.21 nM
Compound: CC(C)S(=O)(=O)c1ccc(-c2cnc(N)c(-c3cc(-c4ccc(CNCC5COC5)cc4)no3)n2)cc1 [I, 5-(4-(isopropylsulfonyl)phenyl)-3-(3-(4-((oxetan-3-ylmethylamino)methyl)phenyl)isoxazol-5-yl)pyrazin-2-amine]
Cisplatin sensitization [5]: 39 nM
